According to patent US8859625B2, “Methods to prepare penta-1,4-dien-3-ones and substituted cyclohexanones and derivatives with antitumoral and antiparasitic properties, the compounds and their uses” (Universidade Bandeirante de Sao Paulo-Academia, Paulista …, priority 2006, dated 2014):
Like-named read-outs stand apart in the source and are kept apart here.

Tests used:
B16F10 melanoma cells = experiment: Cytotoxic and antiproliferative effects by the MTT colorimetric method on B16F10 melanoma cells; assay type: cell-based, murine; conditions: for IC50: Mus musculus
Text: Analysis of Cytotoxic and Antiproliferative Effects of HB-1 Compound and Miglyol 810® as Control by the MTT Colorimetric Method on B16F10 Melanoma Cells.
The colorimetric methodology for the respiratory route of mitochondria MTT (3-(4,5-dimethylthiazol-2-yl)2,5-diphenyl tetrazolium bromide) was used, as described by MOSMANN (1983). This method is based on the reduction of MTT to formazan by living cells. After growth and in vitro confluence of normal and tumoral cells, different concentrations of the HB-1 compound diluted in Miglyol 810® and the diluent-control (Miglyol 810®) have been added on the adhering cells, incubated for 24 hour. After the referred period, 10 μl of MTT (5 mg/mL) were added and incubated for 3 hours in stove with 5% CO2 at 37° C. After this period, the content of the culture plates were centrifuged for 2 minutes at 1800 rpm, at 4° C., the supernatant was removed and 100 μL of dimethyl sulfoxide (DMSO) were added to dissolve formazan crystals previously constituted and precipitated. The absorbances were obtained by an ELISA reader at 540 nm (TiterTek Multiskan) wavelength, with the results obtained shown in FIG. 12.
IC50 Evaluation for B16F10 Melanoma Cells, Obtained from the Linear Equation.

[1] = Acute and subchronic toxicology in Balb-c mice by the endovenous route; assay type: in vivo
Experimental: Acute and Subchronic Toxicology of DM-1 in Balb-c Mice by the Endovenous Route.
Balb-c mice were weighted and housed in the biotery, subdivided into groups of 05 animals per cage and, after two weeks, received the DM-1 compound in different concentrations by the endovenous route. The compound was administered in a 0.2 mL volume using microseringe, for all concentrations, through the retro-orbital venous plexus.

T lymphocytes = experiment: Cytotoxic and proliferative activity on T lymphocytes (MTT, compared to PHA); assay type: cell-based, C57BL/6J mice
Experimental: Preparation of T Lymphocytes
Groups composed by 5 C57BL/6J mice of 2 months of age were sacrificed by cervical displacement and its lymph nodes chain from axillary, popliteal, and mesenteric regions were removed under sterile conditions. Lymph nodes were maintained in RPMI-1640 culture medium supplemented with 10% inactivated bovine fetal serum at 56° C. in the presence of antibiotics, and debridement was performed with the assistance of a bistury. The resulting cell suspension was filtered through 30 μm dialysis membrane and centrifuged for 10 minutes at 1800 rpm at 4° C. Cell pellet was resuspended in 5 mL RPMI complete medium and, after that, incubated in Petri dishes containing 10 mL bovine fetal serum for 1 hour in stove, at 37° C. and 5% CO2. […] Cell concentration was adjusted in Mallassez chamber to a 5×10^5 cells/mL concentration and cell viability was determined by the exclusion method with Trypan blue.
Cytotoxic and proliferative activities were determined in a 96 well plate and compared to mitogenic activity of phytohemagglutinin (PHA) and evaluated by the MTT calorimetric method. The obtained values were expressed as percentage.
The data of each experiment were statistically analysed by the ANOVA variance test with de p<0.05 significance.

[2] = cited from earlier work
B16F10 melanoma = B16F10 melanoma tumors implanted in C57BL/6J mice, intraperitoneal treatment; tumor area and volume; assay type: in vivo; conditions: diluted in Miglyol 810, intraperitoneal 100 μl daily, 14 days
Experimental: After the Day 4 of tumor cells implant (2×10^5 tumoral cells/mL), the animals were splitted in two groups: the test group, treated with HB-1 compound diluted in Miglyol 810® and the control group, which received only the diluent (Miglyol 810®) in the same volume as the test group. The animals were daily treated by intraperitoneal route. Concomitantly, measurements of animal weight and tumor size (two measures—length×width) were performed and tumor aspect registered by photographies.
After the Day 14, the animals were sacrificed by cervical displacement, tumors were removed, and necropsy performed to remove all internal organs and macroscopic lesions for hystopathologic analysis.
Tumoral parameters were obtained by calculation of tumor average area (A) and volume (V), through the following formulas A=πR^2 and V=4/3πR^3, where (R=average tumor radius). […]
After tumoral cell implant, the animals were treated with the HB-2 compound diluted in Miglyol 810® and with (HB2+HB-1) conjugate whereas the control group received the same volume of diluent and by the same administration route (intraperitoneal—100 μl). Daily, the animals received the compounds (100 μl) and the control group received Miglyol 810®, the animals were weighted, and the tumors were measured (length×width) and photographed. […]

[3] = test system: human fibroblasts of normal skin; experiment: MTT cytotoxic and antiproliferative effects on human fibroblasts of normal skin; assay type: cell-based; conditions: diluted in Miglyol 810, 24 hours
Experimental: Analysis of Cytotoxic Effects by the MTT Method and Antiproliferative Effects for HB-2 Compound Diluted in Miglyol 810® and Miglyol 810® Control on Human Fibroblasts of Normal Skin.
Skin fragments were asseptically collected during surgical procedures for tissue remotion in aesthetic surgery and immediately transferred to 50 mL sterile vials containing HAM F-12 (Gibco) culture medium supplemented with 20% of bovine fetal serum. Fragments were chopped, cleaned, and the smaller fragments were cultivated in Petri dishes in a Ham-F12 culture medium supplemented with 10% bovine fetal serum, and kept in humidified stoven at 37° C. and 5% C02.
When attained subconfluence, the cells were trypsinized for 5 minutes, inactivated with 10% bovine fetal serum, centrifuged for 10 minutes at 2000 rpm at 4° C., transferred to 96 well flat bottom plates, and cultivated for 24 hours in a CO2 5% stoven. Fibroblasts were treated for 24 hours with different concentrations of HB-2 compound diluted in Miglyol 810® and the control group received the same volumes of Miglyol alone; cytotoxic and antiproliferative effects were evaluated by the MTT colorimetric method.

COc1cc(/C=C/C(=O)/C=C/c2ccc(O)c(OC)c2)ccc1[O-].[Na+] [DM-1, sodium 4-[5-(4-hydroxy-3-methoxy-phenyl)-3-oxo-penta-1,4-dienyl]-2-methoxy-phenolate]
increase in cytotoxic effects (in vitro efficacy) (B16F10 melanoma cells; monosodium composition relative to HB-1): 7.0 fold | LD50 compared to doxorubicin, fold smaller ([1]; Balb-c, mouse, in vivo, 24 h): 35 fold | 50% lethal dose (DL50) ([1]; endovenous route): 14 mg/kg | maximum tolerable dose ([1]; endovenous route): 14 mg/kg | behavioral alteration after the administration ([1]; endovenous, 0.2 mL via retro-orbital venous plexus): no behavioral alteration was observed | macroscopic and hystopathologic alterations of the internal organs ([1]; necropsy at Day 30): no significant macroscopic and hystopathologic alterations | acute respiratory and cardiac toxicity ([1]; preclinic tests): has not present any suggestive effect of acute respiratory and cardiac toxicity

COc1cc(/C=C/C(=O)/C=C/c2ccc([O-])c(OC)c2)ccc1[O-].[Na+].[Na+] [DM-2, disodium 3-oxo-penta-1,4-dienyl-bis(2-methoxy-phenolate)]
in vitro efficacy in relation to the monosodium DM-1 compound, fold smaller (B16F10 melanoma cells): around 6.0 fold | IC50 (B16F10 melanoma cells; B16-F10, read-out: DOSE, footnote: obtained by preclinic experimental models): 1.9 µg/mL | IC50 (B16F10 melanoma cells; B16-F10, sodium salts, B16F10 murine melanoma, MTT, read-out: IC50): 7.95 µg/mL | toxic activity on normal cells (T lymphocytes; T lymphocytes): no toxic activity on normal cells | proliferative activity of T lymphocytes (T lymphocytes; different concentrations, compared to PHA 2.5 and 5.0 μg): induced no proliferative activity | LETAL DOSE 50% ([1]; comparison table, own compound): 700 mg/kg

COc1cccc2c1C(=O)c1c(O)c3c(c(O)c1C2=O)C[C@@](O)(C(=O)CO)C[C@@H]3O[C@H]1C[C@H](N)[C@H](O)[C@H](C)O1 [Doxorubicin]
50% LETHAL DOSE ([2]; background table): 20 mg/kg | LETAL DOSE 50% ([2]; comparison table, drugs of the therapeutics): 20 mg/kg

COc1cc(C=CC(=O)C=Cc2ccc(OC(C)=O)c(OC)c2)ccc1OC(C)=O [HB-2, 4-[5-(4-acetoxy-3-methoxy-phenyl)-3-oxo-penta-1,4-dienyl]-2-methoxy-phenylacetate]
reduction of tumoral burden (tumor area and volume) (B16F10 melanoma): 60% | cytotoxic effect in normal human fibroblasts [3]: no cytotoxic effect was observed
